Measured values: patent US20110118277A1, “METHOD OF TREATING LIVER DISEASE” (priority 2003, published 2011)

How the values were obtained:
[1] = tested on: NK-T cells; assay: Flow cytometry of liver NK-T cells in HMCDE-fed mice; assay type: in vivo, mouse; conditions: HMCDE-treated mice; HMCDE alone 8±1%; mean±SEM
Description: Briefly, livers were carefully removed and homogenized in Stomacher80 (Seawood, England). The homogenate was then passed through a 100-μm wire mesh and liver cells were collected by centrifugation at 450 g. Mononuclear cells were purified from this fraction by centrifugation at 900 g over 35% Percoll gradients (Amersham Pharmacia Biotech) and incubated with normal mouse serum (Sigma, St Louis, Mo.) and Fc-receptor block (anti-CD16/CD32) to prevent nonspecific binding, plus APC-conjugated anti-mouse Thy-1.2 (the C57BL-6 form of the Thy-1 antibody) and antibodies directed against hematopoietic lineage markers (LIN, a mix of anti-mouse CD4, CD8, CD3, CD45, CD19, Mac-1, Gr-1, Ter119). For NK-T cell labelling, the mononuclear cells were incubated with FTTC-conjugated anti-mouse NK-1.1 and PE-conjugated anti-mouse CD3. All antibodies were from Pharmingen except anti-mouse Ter119, which was from Cedarline lab, Canada. After incubation, pellets were washed to remove unbound antibodies, fixed with 2% formaldehyde and evaluated by FACS (Becton Dickenson). As described in Science 1999; 284:1168-1170, LN^−ve/Thy-1^+ve cells, were classified as putative bone marrow-derived, hepatic progenitor cells. Data was analyzed by Cell Quest software (Becton Dickenson) to determine changes in these cell populations in different treatment groups.

[2] = tested on: healthy rats; conditions: healthy rats treated chronically; cited from earlier work
[3] = tested on: C57BL-6 mice fed HMCDE diet; assay: HMCDE diet-induced liver injury in mice: body weight, liver mass, histology, serum ALT, tolerability; assay type: in vivo, mouse
Description: C57BL-6 mice, 10-18 weeks old, were from Jackson Laboratory (Bar Harbor, Me.) were subjected to the following experiments.
In addition to choline deficiency the diet used here was also 50% deficient in methionine to enhance oxidative injury to the liver, This diet was administered with ethionine (0.15%) in drinking water (Hepatology 2001; 34; 519-522) and the combination treatment is hereafter referred to as half methionine choline deficient diet plus ethionine (HMCDE).
Chemical sympathectomy was achieved by intra-peritoneal (IP) injection of 6-hydroxydopamine (6-OHDA), 100 mg/kg for 5 consecutive days as described in Ann Surg 2001; 233:266-275. Thereafter, 6-OHDA was administered at 100 mg/kg i.p., three times per week to ensure continued sympathectomy.
Mice were divided into 4 groups, with each group containing 10 to 12 animals. […] Therefore, final results are derived from ˜100 mice (10-12 mice/group/experiment×2 experiments).
All mice were weighed at the beginning of the feeding period and weekly thereafter until killed. At the time of sacrifice, sera were collected from all the animals in each group and liver tissue from half the animals in each group. Collected liver tissues were either fixed in buffered formalin, preserved in OCT compound (Sakura, Torrance, Calif.) and processed for histology or snap frozen in liquid nitrogen and stored at −80° C. until RNA was isolated. The livers from the remaining animals in each group were prepared for flow cytometry as described below.
Wedges of liver from each of the mice were prepared for histology and immunochemistry as described previously (Am J Pathol 2002: 161:5210530 and Nat. Med. 2000; 6: 998-1003). For histology, tissues were formalin fixed, paraffin embedded and […] sections were stained with hematoxylin and eosin (H&E). Coded samples were examined by an experienced liver pathologist who was blinded to treatment groups. Hepatocellular fat accumulation was scored as, no fat 0, focal fat accumulation in <1% of the hepatocytes=F, fat in 1-30% of the hepatocytes 1+, fat in 31-60% of the hepatocytes=2+, and fat in 61-100% of the hepatocytes3+. To evaluate the amount of hepatocyte necrosis, the number of necrotic hepatocytes was counted in 10 randomly selected fields with a 20× lens.
Sera from all the animals were analysed for alanine aminotransferase (ALT) activity by the Clinical Chemistry laboratory of the Johns Hopkins Hospital.

[4] = tested on: TNF-α; assay: Hepatic expression of TNF-α mRNA in whole liver RNA; assay type: in vivo, mouse; conditions: 3 controls and 3 PRZ-treated mice
Source text: The latter possibility merits further investigation because it has been reported that TNF-a increases in mice that are fed choline-deficient diets and that proliferating hepatic oval cells produce this cytokine. Moreover, it has been reported that TNF-α is required for oval cell expansion because this response is abrogated by genetic disruption of TNFR1. These observations are particularly intriguing because TNF-α and TNFR1 are necessary for liver regeneration after PH and other types of liver injury. There is strong evidence for cross talk between signaling mechanisms that are activated by TNF-α and those that are modulated by sympathetic neurotransmitters, such as NE. In addition, NE regulates TNF production and vice versa. Thus, SNS inhibition may promote HPC accumulation and decrease liver injury indirectly, by effecting TNF-α activity. […] However, before firm conclusions can be drawn, these studies must be extended to include more animals and assays for TNF-α protein and activity will be necessary.

[5] = tested on: Mouse hepatic oval cells (HOC); assay: Oval cell growth in culture (WST-8 cell number assay); assay type: cell-based
Description: Mouse hepatic oval cells (HOC) (from Dr. Bryon Petersen, University of Florida College of Medicine, Gainesville, Fla.) were maintained in culture with Iscove's modified DMEM according to the protocol described in PNAS 99: 8078-8083, 2002. To confirm that the cells retained their oval cell phenotype in our hands, expression of the embryonic isoform of pyruvate kinase (M2-PK) was evaluated by immunocytochemistry and immunoblot.
Sub-confluent HOC were harvested by gentle trypsinisation and resuspended in serum-free Iscove's modified Dulbecco's minimal essential medium (DMEM), at a density of 5,000 cells/100 μl/well in 96-well plates. […] After 44 hours, cell numbers were assessed by a further 4 h incubation with WST-8 tetrazolium reagent (Dojindo Molecular Technologies, Gaithersburg, Md.) as described in J Clin Invest 106: 501-509, 2000. In viable cells, the tetrazolium salt is metabolized to a colorimetric dye and cell number is proportional to the signal intensity at 450 nm Therefore, this assay reliably detects treatment-induced changes in cell number.
Oval cells were cultured in serum free medium (SF), serum or serum plus increasing concentrations of NE (a) or ISO (c). After 48 hours, the numbers of cells in culture were evaluated. […] Cell numbers were determined after 48 hours.

| Compound | numbers of NK-T cells in the liver, % liver mononuclear cells [1] [%] | liver weight, body weight, ratio and serum ALT [2] | weight loss versus HMCDE group ([3]; FIG. 1, 4 weeks of feeding, P<0.05) | liver cell death / necrosis, representative liver section ([3]; FIG. 3A, H&E) | hepatocellular fat accumulation score, representative liver section ([3]; FIG. 3A, H&E, representative HMCDE animal 2+) | fat score versus HMCDE alone ([3]; FIG. 3B) | numbers of necrotic hepatocytes versus HMCDE diet alone ([3]; FIG. 3C, P<0.05) | serum alanine aminotransferase (ALT) versus HMCDE-fed mice ([3]; FIG. 3D, P<0.03) | mean body weight lost ([3]; mice fed HMCDE diet, 4 weeks, HMCDE alone lost 3 g) [g] | body weight lost, % of starting body weight ([3]; mice fed HMCDE diet, 4 weeks, HMCDE alone lost 12%) [%] | hepatic TNF-α gene expression versus HMCDE-treated controls [4] | effect on proliferation induced by NE plus ISO ([5]; PRZ 10 μM, NE (100 nM)+ISO (100 nM)) | effect on NE-induced oval cell proliferation ([5]; prazosin 10 μM, pertussis toxin 100 ng/ml, PD98059 20 μM, SB202190 10 μM, 48 hours) |
| --- | --- | --- | --- | --- | --- | --- | --- | --- | --- | --- | --- | --- | --- |
| NCCc1cc(O)c(O)cc1O [6-OHDA, 6-hydroxydopamine] | 3.6 ± 0.6 | liver weight, body weight and liver weight to body weight ratios increase significantly without any associated increase in serum ALT values | lost less weight than the HMCDE group | minimal necrosis | F+ | significantly less fat than the HMCDE alone group | reduced | lower ALT levels | 2 | 8 | – | – | – |
| COc1cc2nc(N3CCN(C(=O)c4ccco4)CC3)nc(N)c2cc1OC [PRZ, prazosin] | – | – | – | – | – | – | – | – | – | – | No differences in TNF-a gene expression were detected | blocks catecholamine-induced proliferation | significantly attenuated |
